# Reference: ChEMBL document CHEMBL6109045, “Photosensitizer associated with efflux pump inhibitors as a strategy for photodynamic therapy against bacterial resistance” (2025)
# Legend:
# Bacillus subtilis = assay: Antibacterial activity against Bacillus subtilis assessed as reduction in bacterial growth at 2 uM in presence of 22.5 J/cm2 light irradiation by photosensitization assay; assay type: functional
# Klebsiella aerogenes = assay: Antibacterial activity against Klebsiella aerogenes assessed as reduction in bacterial growth at 16 uM in presence of 54 J/cm2 light irradiation by photosensitization assay; assay type: functional
# Acinetobacter baumannii [1] = assay: Antibacterial activity against Acinetobacter baumannii ATCC BAA 747 assessed as reduction in bacterial growth at 2 uM in presence of 22.5 J/cm2 light irradiation by photosensitization assay; assay type: functional
# Staphylococcus aureus [2] = assay: Antibacterial activity against Staphylococcus aureus ATCC 25923 assessed as reduction in bacterial growth in presence of 6 J/cm2 light irradiation by photosensitization assay; assay type: functional
# Staphylococcus aureus [3] = assay: Antibacterial activity against Staphylococcus aureus ATCC 25923 assessed as reduction in bacterial growth at 5 ug/ml in presence of 97.65 J/cm2 light irradiation by photosensitization assay; assay type: functional; details: dose 5 µg/ml
# Staphylococcus aureus [4] = assay: Antibacterial activity against Staphylococcus aureus ATCC 25923 assessed as reduction in bacterial growth at 50 ug/ml in presence of 58.49 J/cm2 light irradiation by photosensitization assay; assay type: functional; details: dose 50 µg/ml
# Escherichia coli [5] = assay: Antibacterial activity against Escherichia coli ATCC 25922 assessed as reduction in bacterial growth in presence of 6 J/cm2 light irradiation by photosensitization assay; assay type: functional
# Pseudomonas aeruginosa [6] = assay: Antibacterial activity against Pseudomonas aeruginosa ATCC 27853 assessed as reduction in bacterial growth at 50 ug/ml in presence of 58.4 J/cm2 light irradiation by photosensitization assay; assay type: functional; details: dose 50 µg/ml
# Pseudomonas aeruginosa [7] = assay: Antibacterial activity against Pseudomonas aeruginosa ATCC 27853 assessed as reduction in bacterial growth at 50 ug/ml in presence of 97.65 J/cm2 light irradiation by photosensitization assay; assay type: functional; details: dose 50 µg/ml
# Staphylococcus aureus [8] = assay: Antibacterial activity against Staphylococcus aureus ATCC 25923 assessed as reduction in bacterial growth at 20 uM in presence of 100 J/cm2 light irradiation by photosensitization assay; assay type: functional
# Escherichia coli [9] = assay: Antibacterial activity against Escherichia coli ATCC 25922 assessed as reduction in bacterial growth at 20 uM in presence of 100 J/cm2 light irradiation by photosensitization assay; assay type: functional
# Escherichia coli [10] = assay: Antibacterial activity against Escherichia coli assessed as reduction in bacterial growth at 100 uM in presence of 100 J/cm2 light irradiation by photosensitization assay; assay type: functional
# Escherichia coli [11] = assay: Antibacterial activity against Escherichia coli assessed as reduction in bacterial growth at 20 uM in presence of 80 J/cm2 light irradiation by photosensitization assay; assay type: functional, organism-based
# Staphylococcus aureus [12] = assay: Antibacterial activity against Staphylococcus aureus ATCC 29213 assessed as reduction in bacterial growth at 0.25 uM in presence of 8 J/cm2 light irradiation by photosensitization assay; assay type: functional
# Staphylococcus aureus [13] = assay: Antibacterial activity against Staphylococcus aureus ATCC 29213 assessed as reduction in bacterial growth at 8 uM in presence of 30 J/cm2 light irradiation by photosensitization assay; assay type: functional
# Escherichia coli [14] = assay: Antibacterial activity against Escherichia coli assessed as reduction in bacterial growth at 8 uM in presence of 30 J/cm2 light irradiation by photosensitization assay; assay type: functional
# Staphylococcus aureus [15] = assay: Antibacterial activity against methicillin-resistant Staphylococcus aureus ATCC 33591 assessed as reduction in bacterial growth at 1 uM in presence of 8 J/cm2 light irradiation by photosensitization assay; assay type: functional
# Staphylococcus aureus [16] = assay: Antibacterial activity against methicillin-resistant Staphylococcus aureus ATCC 33591 assessed as reduction in bacterial growth at 8 uM in presence of 30 J/cm2 light irradiation by photosensitization assay; assay type: functional
# Staphylococcus aureus [17] = assay: Antibacterial activity against Staphylococcus aureus ATCC 29213 assessed as reduction in bacterial growth at 5 uM in presence of 18 J/cm2 light irradiation by photosensitization assay; assay type: functional
# Enterococcus faecalis [18] = assay: Antibacterial activity against Staphylococcus aureus ATCC 29212 assessed as reduction in bacterial growth at 14 uM in presence of 25 J/cm2 light irradiation by photosensitization assay; assay type: functional
# Pseudomonas aeruginosa [19] = assay: Antibacterial activity against Pseudomonas aeruginosa ATCC 27853 assessed as reduction in bacterial growth at 60 ug/ml in presence of 100 J/cm2 light irradiation by photosensitization assay; assay type: functional; details: dose 60 µg/ml
# Escherichia coli [20] = assay: Antibacterial activity against Escherichia coli K12 assessed as reduction in bacterial growth at 20 uM in presence of 6 J/cm2 light irradiation by photosensitization assay; assay type: functional
# Staphylococcus aureus [21] = assay: Antibacterial activity against methicillin-resistant Staphylococcus aureus ATCC 33591 assessed as reduction in bacterial growth at 20 uM in presence of 6 J/cm2 light irradiation by photosensitization assay; assay type: functional
# Acinetobacter baumannii [22] = assay: Antibacterial activity against Acinetobacter baumannii ATCC 17978 assessed as reduction in bacterial growth at 20 uM in presence of 6 J/cm2 light irradiation by photosensitization assay; assay type: functional
# Staphylococcus aureus [23] = assay: Antibacterial activity against Staphylococcus aureus assessed as reduction in bacterial growth at 20 uM in presence of 80 J/cm2 light irradiation by photosensitization assay; assay type: functional
# Staphylococcus aureus [24] = assay: Antibacterial activity against Staphylococcus aureus assessed as reduction in bacterial growth at 200 ug/ml in presence of 180 J/cm2 light irradiation by photosensitization assay; assay type: functional; details: dose 200 µg/ml
# Staphylococcus aureus [25] = assay: Antibacterial activity against Staphylococcus aureus MCC 2408 assessed as reduction in bacterial growth at 50 ug/ml in presence of 58.49 J/cm2 light irradiation by photosensitization assay; assay type: functional; details: dose 50 µg/ml
# Staphylococcus aureus [26] = assay: Antibacterial activity against Staphylococcus aureus MCC 2408 assessed as reduction in bacterial growth at 16 uM in presence of 54 J/cm2 light irradiation by photosensitization assay; assay type: functional
# Staphylococcus aureus [27] = assay: Antibacterial activity against Staphylococcus aureus MCC 2408 assessed as reduction in bacterial growth at 400 uM in presence of 72 J/cm2 light irradiation by photosensitization assay; assay type: functional
# Staphylococcus aureus [28] = assay: Antibacterial activity against Staphylococcus aureus MCC 2408 assessed as reduction in bacterial growth at 0.62 ug/ml in presence of 18 J/cm2 light irradiation by photosensitization assay; assay type: functional; details: dose 0.62 µg/ml
# Staphylococcus aureus [29] = assay: Antibacterial activity against Staphylococcus aureus […] assessed as reduction in bacterial growth at 64 ug/ml in presence of 18 J/cm2 light irradiation by photosensitization assay; assay type: functional; details: dose 64 µg/ml
# Pseudomonas aeruginosa [30] = assay: Antibacterial activity against Pseudomonas aeruginosa ATCC 27853 assessed as reduction in bacterial growth at 10 to 20 ug/ml in presence of 18 J/cm2 light irradiation by photosensitization assay; assay type: functional; details: dose 10-20 µg/ml
# Pseudomonas aeruginosa [31] = assay: Antibacterial activity against Pseudomonas aeruginosa ATCC 27853 assessed as reduction in bacterial growth at 16 uM in presence of 54 J/cm2 light irradiation by photosensitization assay; assay type: functional
# Pseudomonas aeruginosa [32] = assay: Antibacterial activity against Pseudomonas aeruginosa ATCC 27853 assessed as reduction in bacterial growth at 400 uM in presence of 72 J/cm2 light irradiation by photosensitization assay; assay type: functional
# Pseudomonas aeruginosa [33] = assay: Antibacterial activity against Pseudomonas aeruginosa ATCC 27853 assessed as reduction in bacterial growth at 7000 ug/ml in presence of 18 J/cm2 light irradiation by photosensitization assay; assay type: functional; details: dose 7000 µg/ml
# Enterococcus faecalis [34] = assay: Antibacterial activity against Enterococcus faecalis assessed as reduction in bacterial growth at 16 uM in presence of 54 J/cm2 light irradiation by photosensitization assay; assay type: functional
# Staphylococcus aureus [35] = assay: Antibacterial activity against Staphylococcus aureus ATCC 29213 assessed as reduction in bacterial growth at 300 ug/ml in presence of 12 J/cm2 light irradiation by photosensitization assay; assay type: functional; details: dose 300 µg/ml
# Acinetobacter baumannii [36] = assay: Antibacterial activity against Acinetobacter baumannii ATCC 17978 assessed as reduction in bacterial growth at 10 uM in presence of 22.5 J/cm2 light irradiation by photosensitization assay; assay type: functional
# Pseudomonas aeruginosa [37] = assay: Antibacterial activity against Pseudomonas aeruginosa ATCC 27853 assessed as reduction in bacterial growth at 10 uM in presence of 100 J/cm2 light irradiation by photosensitization assay; assay type: functional
# Acinetobacter baumannii [38] = assay: Antibacterial activity against Acinetobacter baumannii ATCC 17978 assessed as reduction in bacterial growth at 2 uM in presence of 22.5 J/cm2 light irradiation by photosensitization assay; assay type: functional
smiles,measurement,setting,value
Cc1cc2nc3ccc(N(C)C)cc3[s+]c2cc1N.[Cl-] [TOLONIUM CHLORIDE],log(activity),Bacillus subtilis,>6
same,log(activity),Klebsiella aerogenes,>8
same,log(activity),Acinetobacter baumannii [1],3
same,log(activity),Staphylococcus aureus [2],5.83
same,log(activity),Staphylococcus aureus [3],2.66
same,log(activity),Staphylococcus aureus [4],2.21
same,log(activity),Escherichia coli [5],0.08
same,log(activity),Pseudomonas aeruginosa [6],2.2
same,log(activity),Pseudomonas aeruginosa [7],2.36
C1=Cc2nc1c(-c1ccccc1)c1ccc([nH]1)c(-c1ccccc1)c1nc(c(-c3ccccc3)c3ccc([nH]3)c2-c2ccccc2)C=C1,log(activity),Staphylococcus aureus [8],5
same,log(activity),Escherichia coli [9],3
C[n+]1cccc(-c2c3nc(c(-c4ccc[n+](C)c4)c4ccc([nH]4)c(-c4ccc[n+](C)c4)c4nc(c(-c5ccc[n+](C)c5)c5ccc2[nH]5)C=C4)C=C3)c1,log(activity),Escherichia coli [10],6
same,log(activity),Escherichia coli [11],7
Cc1cc(O)c2c(=O)c3c(O)cc(O)c4c5c(O)cc(O)c6c(=O)c7c(O)cc(C)c8c1c2c(c34)c(c78)c65 [HYPERICIN],log(activity),Staphylococcus aureus [12],>6
same,log(activity),Staphylococcus aureus [13],>6
same,log(activity),Escherichia coli [14],0.06
same,log(activity),Staphylococcus aureus [15],>0.6
same,log(activity),Staphylococcus aureus [16],>0.6
COc1cc(/C=C/C(=O)CC(=O)/C=C/c2ccc(O)c(OC)c2)ccc1O [CURCUMIN],log(activity),Staphylococcus aureus [17],7
same,log(activity),Enterococcus faecalis [18],10
O=[N+]([O-])c1ccc(-c2c3nc(c(-c4ccc([N+](=O)[O-])cc4)c4ccc([nH]4)c(-c4ccc([N+](=O)[O-])cc4)c4nc(c(-c5ccc([N+](=O)[O-])cc5)c5ccc2[nH]5)C=C4)C=C3)cc1,log(activity),Pseudomonas aeruginosa [19],2
O=S(=O)(O)c1ccc(-c2c3nc(c(-c4ccc(S(=O)(=O)O)cc4)c4ccc([nH]4)c(-c4ccc(S(=O)(=O)O)cc4)c4nc(c(-c5ccc(S(=O)(=O)O)cc5)c5ccc2[nH]5)C=C4)C=C3)cc1,log(activity),Staphylococcus aureus [8],7
same,log(activity),Escherichia coli [9],7
CN(CCCOc1ccccc1NC(=O)Nc1ccc2ccccc2c1)CCN(C)c1ccc2nc3ccc(N(C)C)cc3[s+]c2c1.[Cl-],log(activity),Escherichia coli [20],3
same,log(activity),Staphylococcus aureus [21],4
same,log(activity),Acinetobacter baumannii [22],3
CN(C)c1ccc2nc3ccc(N4CCN(CCCOc5ccccc5NC(=O)Nc5ccc6ccccc6c5)CC4)cc3[s+]c2c1.[Cl-],log(activity),Escherichia coli [20],3
same,log(activity),Staphylococcus aureus [21],3
C[n+]1ccc(-c2c3nc(c(-c4cc[n+](C)cc4)c4ccc([nH]4)c(-c4cc[n+](C)cc4)c4ccc([nH]4)c(-c4cc[n+](C)cc4)c4nc2C=C4)C=C3)cc1 [TMPYP4],log(activity),Staphylococcus aureus [23],7
same,log(activity),Staphylococcus aureus [8],7
same,log(activity),Escherichia coli [9],7
CC1=C(CCC(=O)O)c2cc3[nH]c(cc4nc(cc5[nH]c(cc1n2)c(C)c5C(C)O)C(C)=C4C(C)O)c(C)c3CCC(=O)O (stereo not drawn) [HEMATOPORPHYRIN],log(activity),Staphylococcus aureus [24],>6
same,log(activity),Escherichia coli [10],<6
CN(C)c1ccc2nc3ccc(N(C)C)cc3[s+]c2c1.[Cl-] [METHYLENE BLUE ANHYDROUS],log(activity),Staphylococcus aureus [25],2.38
same,log(activity),Staphylococcus aureus [26],5
same,log(activity),Staphylococcus aureus [27],7.3
same,log(activity),Staphylococcus aureus [28],6
same,log(activity),Staphylococcus aureus [29],6
same,log(activity),Pseudomonas aeruginosa [30],6
same,log(activity),Pseudomonas aeruginosa [31],1.1
same,log(activity),Pseudomonas aeruginosa [32],4.1
same,log(activity),Pseudomonas aeruginosa [33],6
same,log(activity),Enterococcus faecalis [34],0.7
CN(CCN(C)c1ccc2nc3ccc(N(C)C)cc3[s+]c2c1)C(=O)c1ccc(-c2cc3cc([N+](=O)[O-])ccc3[nH]2)cc1.Cl,log(activity),Escherichia coli [20],6
same,log(activity),Staphylococcus aureus [21],6
same,log(activity),Acinetobacter baumannii [22],4
Cc1cc(N(C)C)cc2[s+]c3cc(N(C)C)cc(C)c3nc12.[Cl-],log(activity),Staphylococcus aureus [35],99%
CCNc1cc2[s+]c3cc(NCC)c(C)cc3nc2cc1C.[Cl-],log(activity),Acinetobacter baumannii [36],3
same,log(activity),Pseudomonas aeruginosa [37],3
same,log(activity),Acinetobacter baumannii [38],6
CN(CCN(C)c1ccc2nc3ccc(N(C)C)cc3[s+]c2c1)Cc1ccc(-c2cc3cc([N+](=O)[O-])ccc3[nH]2)cc1.Cl,log(activity),Escherichia coli [20],4
same,log(activity),Staphylococcus aureus [21],3
same,log(activity),Acinetobacter baumannii [22],5
